Patent US7423060B2, “Thiophene hydroxamic acid derivatives and their use as HDAC inhibitors” (Hoffman-La Roche Inc., priority 2004, dated 2008)

Tested on: HT-29 cells
Assay: MTT assay on HT-29 human colon carcinoma cell line
Format: cell-based
Conditions: MTT assay after 5 days, compounds 30 μM to 1.5 nM, read-out: IC90 HT29
Experimental: To show the activity of the compounds according to this invention, their effects on a human colon carcinoma cell line was evaluated using a standard MTT-assay. MTT (3-(4,5-dimethylthiazol-2-yl)-2,5-diphenyl tetrazolium bromide) is widely used for the quantitative determination of cytotoxic effects or in vitro chemosensitivity of tumor cells. The assay is based on the cleavage of the yellow tetrazolium salt (MTT) to purple formazan crystals by metabolic active cells. For details, see Rubinstein, L. V., et al., J. Natl. Cancer Inst. 82 (1990) 1113-1118.
We proceeded as follows: HT-29 cells (human colon carcinoma cell line, ATCC-No. HTB-38) were cultivated in RPMI 1640 medium with GlutaMAX™ I (Invitrogen, Cat-No. 61870-010), 2.5% fetal calf serum (FCS, Sigma Cat-No. F4135 (FBS)), 2 mM glutamine, 100 units/ml penicillin, 100 μg/ml streptomycin (=Pen/Strep from Invitrogen Cat. No. 15140). For the assay the cells were seeded in 384 well plates, 900 cells per well, in the same medium. At the next day, the compounds (dissolved 10 mM in DMSO) were added in various concentrations ranging from 30 μM to 1.5 nM. After 5 days, the MTT assay was done mainly according to the instructions of the manufacturer (Cell proliferation kit I, MTT, from Roche Molecular Biochemicals). […] After careful mixing, the plates were measured in Victor 2 (scanning multiweil spectrophotometer, Wallac) at 550 nm. […]

IC90: 0.69 µM
SMILES: CC(NC(=O)c1ccc(C(=O)NO)s1)c1ccc(OCc2ccc(OC(F)(F)F)cc2)cc1 (stereo not shown) [Example 1-1, Thiophene-2,5-dicarboxylic acid 2-hydroxyamide 5-({1-[4-(4-trifluoromethoxy-benzyloxy)-phenyl]-ethyl}-amide)]
